Columns and labels:
[1] = tested on: antennae of winged soybean aphids, Aphis glycines; assay: EAG responses of winged soybean aphids to soybean associated volatile compounds; settings: relative to the control (FIG. 3)
Excerpt: FIG. 3 is a graph of EAG responses of winged soybean aphids, Aphis glycines, to some soybean associated volatile compounds.
EAG responses of soybean aphids to soybean plant volatiles and their attractiveness in the field. […] All other compounds elicited EAG responses seemed not to be attractive to winged aphids relative to the control.

syrphids = assay: Field trapping of predatory insects with attractant compounds: syrphids; assay type: in vivo, Syrphidae (syrphids); settings: 100 mg bait, Iowa soybean field 2003 (FIG. 7)
Method: (§1) FIG. 7 is a graph of the mean number of predatory insects caught in traps baited with 100 mg of methyl salicylate and 2-phenylethanol, and the control from an Iowa soybean field in 2003.
(§2) Field Test. Field trapping tests were conducted in soybean field from 2002 to 2003 (Ames, Iowa). Synthetic compounds at a dose of 100 mg (for plant volatiles) and 10 mg for soybean aphid pheromones were prepared in either hexane or methylene chloride or ether. Medical peerless cotton rolls (5 cm long, 100% cotton) were used as dispensers for loading plant volatiles, and borosilicate glass vials (Chromal) were housed for pheromones. Two trap designs were used, and the first type is similar to that described in Zhu et al., (1999), and the second one is the most common trap used for aphid trapping, the water trap. The trap was hung from bamboo stakes, 1.2 m above the ground. Within a replicate (N=5-6), traps were set at least 10 m apart. The traps were checked daily, and trap position within a series was randomized to minimize the effects of habitat heterogeneity.

winged soybean aphids = assay: Field trapping of winged soybean aphids with selected soybean volatile compounds; assay type: in vivo, Aphis glycines; settings: traps baited with synthetic soybean volatile, 100 mg, soybean field (FIG. 4)
Method: FIG. 4 is a graph of the number of winged soybean aphids caught per trap baited with some selected soybean volatile compounds (synthetic) in the soybean field.
as §2

[2] = tested on: Coccinella septempunctata; assay: Field trapping of predatory insects with attractant compounds: Coccinella septempunctata; assay type: in vivo; settings: 100 mg bait, Iowa soybean field 2003 (FIG. 7)
Method: as §1
FIG. 8 is a graph of the mean number of Coccinella septempunctata caught in traps baited with different doses of methyl salicylate from an Iowa soybean field in 2004.
as §2

Harmonia axyridis = assay: Field trapping of predatory insects with attractant compounds: Harmonia axyridis; assay type: in vivo; settings: 100 mg bait, vs control (FIG. 7)
Method: as §1, §2

[3] = tested on: soybean aphids on soybean plants; assay: Caged greenhouse experiment: effect of methyl salicylate on soybean aphid colonizing and growth; assay type: in vivo, Aphis glycines
Method: The effect of Methyl salicylate on soybean aphid growth. This experiment was conducted in the green house, where cages of soybean plants treated with dispensers loaded 4 g of synthetic methyl salicylate. Newly emerged winged soybean aphids on one cut-soybean leaf (dried) were placed in the middle of the cage, which is 30 cm away from the potted soybean plants (V2 stage) with or without treatment of methyl salicylate. For plants treated with methyl salicylate, the cotton roll was placed in the center of the plant, and was replaced with a newly loaded one after one week. The number of winged aphids on each plant were counted 2 hours after introducing the winged aphids, and continued for a week. The number of wingless soybean aphids produced from those landed winged aphids was also counted everyday for about two weeks.

[4] = tested on: male and gynoparous female soybean aphids; assay: Field trapping of male and gynoparous soybean aphids with synthetic sex pheromone lures; assay type: in vivo, Aphis glycines; settings: synthetic pheromone lures 10 mg, soybean fields (FIG. 12)
Method: FIG. 16 is a graph of mean number of winged soybean aphids caught in water traps baited with different combinations of catnip oil and the two pheromone compounds (n=5, columns with no letters in common are significant different, ANOVA followed by FPLSD test, P<0.05)
as §2

[5] = tested on: gynoparous female antennae of soybean aphids; assay: EAG dose-response of gynoparous female soybean aphid antennae to synthetic pheromone compounds; design: species or system Aphis glycines; settings: when pheromone exceeded a 1 mg dosage (FIG. 11 lower)
Excerpt: FIG. 11 is two graphs of EAG dose-response curves from male (upper part) and gynoparous female antennae (lower part) of soybean aphids to synthetic pheromone candidate compounds (n=4; different letters within a series indicate significant differences, ANOVA followed by FPLSD test, P<0.05)
EAG dose-responses of male and gynoparous soybean aphids to the identified sex pheromone compounds.

SMILES: OCCc1ccccc1 [2-phenylethanol]
- EAG responses of winged soybean aphids [1]: significantly stronger than the control
- attraction of syrphids to baited traps (syrphids): strongest attraction

SMILES: CC(=O)CCC=C(C)C [6-methyl-5-hepten-2-one]
- EAG responses of winged soybean aphids [1]: significantly stronger than the control

SMILES: CCC/C=C/C=O [(E)-2 hexenal]
- EAG responses of winged soybean aphids [1]: highest response

SMILES: CC/C=C\CCO [(Z)-3 Hexenol]
- EAG responses of winged soybean aphids [1]: significantly stronger than the control

SMILES: CC/C=C\CCOC(C)=O [(Z)-3 hexenyl acetate]
- EAG responses of winged soybean aphids [1]: significantly stronger than the control

SMILES: O=Cc1ccccc1 [benzaldehyde]
- EAG responses of winged soybean aphids [1]: significantly stronger than the control
- number of winged soybean aphids caught per trap (winged soybean aphids): caught the most

SMILES: C=CC(C)(O)CCC=C(C)C (stereo not shown) [linalool]
- EAG responses of winged soybean aphids [1]: significantly stronger than the control

SMILES: COC(=O)c1ccccc1O [methyl salicylate]
- attraction of adults of Coccinella septempunctata to baited traps [2]: significantly attractive
- EAG responses of winged soybean aphids [1]: significantly stronger than the control
- number of Harmonia axyridis caught in baited traps (Harmonia axyridis): not significantly differed from the control
- growth of wingless soybean aphids on soybean leaves ([3]; caged potted soybean plants treated vs untreated (FIG. 17 lower)): suppress the growth
- soybean aphid colonizing on soybean plants (winged aphids found on potted plants) ([3]; caged potted soybean plants treated vs untreated (FIG. 17 upper)): significantly reducing
- attraction of syrphids to baited traps (syrphids): attracted to some syrphids

SMILES: CC1=CO[C@@H](O)[C@H]2[C@@H]1CC[C@@H]2C [nepetalactol, (1R,4aS,7S,7aR)-nepetalactol]
- number of male and gynoparous soybean aphids caught in traps [4]: Significantly lower catches

SMILES: CC1=COC(=O)[C@H]2[C@@H]1CC[C@@H]2C [nepetalactone, (4aS,7S,7aR)-nepetalactone]
- EAG response of gynoparous female antennae [5]: higher EAG response
- number of male and gynoparous soybean aphids caught in traps [4]: Significantly lower catches

SMILES: C=CC(C)=CCC=C(C)C [ocimene]
- EAG responses of winged soybean aphids [1]: significantly stronger than the control
